Results taken from US11472798B2 (Mission Therapeutics Limited, priority 2014, dated 2022).

Target: T1, UCHL1 (Homo sapiens, UniProt P09936)
T1 construct: made in house; host or cells: HEK293T
T1 sequence (P09936 1-223): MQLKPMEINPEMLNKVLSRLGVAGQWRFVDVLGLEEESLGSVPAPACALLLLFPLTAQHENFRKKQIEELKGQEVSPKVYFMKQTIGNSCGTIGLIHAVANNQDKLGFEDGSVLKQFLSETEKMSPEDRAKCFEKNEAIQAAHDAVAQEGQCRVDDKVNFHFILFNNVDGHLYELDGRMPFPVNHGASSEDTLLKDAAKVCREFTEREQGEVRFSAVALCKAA
Assay: UCHL1 biochemical IC50 assay (fluorescence polarisation)
Conditions: 30 min enzyme/compound pre-incubation at room temp, read after 2 hr incubation, read-out: Activity range (UCHL1 biochemical IC50 assay)
Procedure, shortened: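 Fluorescence polarisation (ex 540/em 590 nm) of 50 nM TAMRA-labelled ubiquitin–peptide isopeptide substrate was read at time zero and after 2 h at room temperature. Compounds (100–0.03 μM final, in duplicate) were given 30 min preincubation with N-FLAG UCHL1 from HEK293T cells in pH 7.5 Tris buffer.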

**Q.** How did the IC50 turn out when CC(C)S(=O)(=O)N1CCn2nc(NC(=O)[C@H]3CCN(C#N)C3)cc2C1 [Example 240, (S)-1-cyano-N-(5-(isopropylsulfonyl)-4,5,6,7-tetrahydropyrazolo[1,5-a]pyrazin-2 yl)pyrrolidine-3-carboxamide] was run?
**A.** Its IC50 is < 1 µM.

**Q.** Which IC50 does the source give for N#CN1CC[C@H](C(=O)Nc2cc3n(n2)CCN(c2ccccc2)C3)C1 [Example 241, (S)-1-cyano-N-(5-phenyl-4,5,6,7-tetrahydropyrazolo[1,5-a]pyrazin-2-yl)pyrrolidine-3-carboxamide] here?
**A.** Its IC50 is < 1 µM.

**Q.** How did the IC50 turn out when N#CN1CC[C@H](C(=O)Nc2cc3n(n2)CCN(Cc2ccccc2)C3)C1 [Example 242, (S)—N-(5-benzyl-4,5,6,7-tetrahydropyrazolo[1,5-a]pyrazin-2-yl)-1-cyanopyrrolidine-3-carboxamide] was run?
**A.** Its IC50 is < 1 µM.

**Q.** For COCCOc1cc(-n2cnc(NC(=O)[C@H]3CCN(C#N)C3)c2)ccc1C#N [Example 243, (S)-1-cyano-N-(1-(4-cyano-3-(2-methoxyethoxy)phenyl)-1H-imidazol-4-yl)pyrrolidine-3-carboxamide], which IC50 is on record?
**A.** Its IC50 is < 1 µM.

**Q.** With COCCOc1ccc(C#N)c(-n2cnc(NC(=O)[C@H]3CCN(C#N)C3)c2)c1 [Example 244, (S)-1-cyano-N-(1-(2-cyano-5-(2-methoxyethoxy)phenyl)-1H-imidazol-4-yl)pyrrolidine-3-carboxamide] as the compound, how does the IC50 read?
**A.** The IC50 was < 1 µM.

**Q.** With N#Cc1ccc(-n2cnc(NC(=O)[C@H]3CCN(C#N)C3)c2)cc1OCCCN1CCOCC1 [Example 245, (S)-1-cyano-N-(1-(4-cyano-3-(3-morpholinopropoxy)phenyl)-1H-imidazol-4-yl)pyrrolidine-3-carboxamide] as the compound, how does the IC50 read?
**A.** Its IC50 is < 1 µM.

**Q.** For N#Cc1ccc(OCCCN2CCOCC2)cc1-n1cnc(NC(=O)[C@H]2CCN(C#N)C2)c1 [Example 246, (S)-1-cyano-N-(1-(2-cyano-5-(3-morpholinopropoxy)phenyl)-1H-imidazol-4-yl)pyrrolidine-3-carboxamide], which IC50 is on record?
**A.** The IC50 was < 1 µM.

**Q.** With N#Cc1ccc(-n2cnc(NC(=O)[C@H]3CCN(C#N)C3)c2)cc1O[C@H]1CCOC1 [Example 247, (S)-1-cyano-N-(1-(4-cyano-3-(((S)-tetrahydrofuran-3-yl)oxy)phenyl)-1H-imidazol-4-yl)pyrrolidine-3-carboxamide] as the compound, how does the IC50 read?
**A.** The IC50 was < 1 µM.

**Q.** With N#Cc1ccc(O[C@H]2CCOC2)cc1-n1cnc(NC(=O)[C@H]2CCN(C#N)C2)c1 [Example 248, (S)-1-cyano-N-(1-(2-cyano-5-(((S)-tetrahydrofuran-3-yl)oxy)phenyl)-1H-imidazol-4-yl)pyrrolidine-3-carboxamide] as the compound, how does the IC50 read?
**A.** The IC50 was 1 to 10 µM.

**Q.** With N#Cc1ccc(-n2cnc(NC(=O)[C@H]3CCN(C#N)C3)c2)cc1OC1COC1 [Example 249, (S)-1-cyano-N-(1-(4-cyano-3-(oxetan-3-yloxy)phenyl)-1H-imidazol-4-yl)pyrrolidine-3-carboxamide] as the compound, how does the IC50 read?
**A.** The IC50 was < 1 µM.

**Q.** Which IC50 does the source give for N#Cc1ccc(OC2COC2)cc1-n1cnc(NC(=O)[C@H]2CCN(C#N)C2)c1 [Example 250, (S)-1-cyano-N-(1-(2-cyano-5-(oxetan-3-yloxy)phenyl)-1H-imidazol-4-yl)pyrrolidine-3-carboxamide] here?
**A.** The IC50 was < 1 µM.

**Q.** For N#CN1CC[C@H](C(=O)Nc2cc(-c3ccnc4ccnn34)ccn2)C1 [Example 251, (S)-1-cyano-N-(4-(pyrazolo[1,5-a]pyrimidin-7-yl)pyridin-2-yl)pyrrolidine-3-carboxamide], which IC50 is on record?
**A.** The IC50 was < 1 µM.

**Q.** N#CN1CC[C@H](C(=O)Nc2cc(-c3ccnc4nccn34)ccn2)C1 [Example 252, (S)-1-cyano-N-(4-(imidazo[1,2-a]pyrimidin-5-yl)pyridin-2-yl)pyrrolidine-3-carboxamide] was tested. Which IC50 did it give?
**A.** Its IC50 is 1 to 10 µM.

**Q.** For N#CN1CC[C@H](C(=O)Nc2cc(-c3cccc4nccn34)ccn2)C1 [Example 253, (S)-1-cyano-N-(4-(imidazo[1,2-a]pyridin-5-yl)pyridin-2-yl)pyrrolidine-3-carboxamide], which IC50 is on record?
**A.** Its IC50 is < 1 µM.

**Q.** For N#CN1CC[C@H](C(=O)Nc2cc(-c3cn4ccnc4cn3)ccn2)C1 [Example 254, (S)-1-cyano-N-(4-(imidazo[1,2-a]pyrazin-6-yl)pyridin-2-yl)pyrrolidine-3-carboxamide], which IC50 is on record?
**A.** The IC50 was < 1 µM.

**Q.** With N#CN1CC[C@H](C(=O)Nc2cc(-c3cnc4nccn4c3)ccn2)C1 [Example 255, (S)-1-cyano-N-(4-(imidazo[1,2-a]pyrimidin-6-yl)pyridin-2-yl)pyrrolidine-3-carboxamide] as the compound, how does the IC50 read?
**A.** Its IC50 is < 1 µM.

**Q.** Which IC50 does the source give for N#CN1CC[C@H](C(=O)Nc2cc3cccnc3cn2)C1 [Example 256, (S)-1-cyano-N-(1,7-naphthyridin-6-yl)pyrrolidine-3-carboxamide] here?
**A.** The IC50 was 1 to 10 µM.

**Q.** With N#CN1CC[C@H](C(=O)Nc2cc(-c3cccc(Cl)c3)ncn2)C1 [Example 257, (S)-N-(6-(3-chlorophenyl)pyrimidin-4-yl)-1-cyanopyrrolidine-3-carboxamide] as the compound, how does the IC50 read?
**A.** Its IC50 is 1 to 10 µM.

**Q.** How did the IC50 turn out when N#CN1CC[C@H](C(=O)Nc2cc(-c3ccnc(N)c3)ccn2)C1 [Example 258, (S)-N-(2′-amino-[4,4′-bipyridin]-2-yl)-1-cyanopyrrolidine-3-carboxamide] was run?
**A.** The IC50 was 1 to 10 µM.

**Q.** How did the IC50 turn out when CNc1cc(-c2ccnc(NC(=O)[C@H]3CCN(C#N)C3)c2)ccn1 [Example 259, (S)-1-cyano-N-(2′-(methylamino)-[4,4′-bipyridin]-2-yl)pyrrolidine-3-carboxamide] was run?
**A.** The IC50 was 1 to 10 µM.

**Q.** With CNC(=O)c1ccc2cnc(NC(=O)[C@H]3CCN(C#N)C3)cc2c1 [Example 260, (S)-3-(1-cyanopyrrolidine-3-carboxamido)-N-methylisoquinoline-6-carboxamide] as the compound, how does the IC50 read?
**A.** The IC50 was 1 to 10 µM.

**Q.** With Cc1noc(C)c1-c1ccc2cnc(NC(=O)[C@H]3CCN(C#N)C3)cc2c1 [Example 261, (S)-1-cyano-N-(6-(3,5-dimethylisoxazol-4-yl)isoquinolin-3-yl)pyrrolidine-3-carboxamide] as the compound, how does the IC50 read?
**A.** Its IC50 is < 1 µM.

**Q.** N#CN1CC[C@H](C(=O)Nc2cc(-c3cccc4[nH]ncc34)ccn2)C1 [Example 262, (S)—N-(4-(1H-indazol-4-yl)pyridin-2-yl)-1-cyanopyrrolidine-3-carboxamide] was tested. Which IC50 did it give?
**A.** Its IC50 is < 1 µM.

**Q.** C#Cc1ccc2cnc(NC(=O)[C@H]3CCN(C#N)C3)cc2c1 [Example 263, (S)-1-cyano-N-(6-ethynylisoquinolin-3-yl)pyrrolidine-3-carboxamide] was tested. Which IC50 did it give?
**A.** The IC50 was 1 to 10 µM.

**Q.** C#Cc1ccc2cnc(NC(=O)[C@H]3CCN(C#N)[C@H]3C)cc2c1 [Example 264, (2S,3S)-1-cyano-N-(6-ethynylisoquinolin-3-yl)-2-methylpyrrolidine-3-carboxamide] was tested. Which IC50 did it give?
**A.** Its IC50 is 1 to 10 µM.

**Q.** Which IC50 does the source give for N#CN1CC[C@H](C(=O)Nc2cc3cc(C(N)=O)ccc3cn2)C1 [Example 265, (S)-3-(1-cyanopyrrolidine-3-carboxamido)isoquinoline-6-carboxamide] here?
**A.** Its IC50 is 1 to 10 µM.

**Q.** For C[C@H]1[C@@H](C(=O)Nc2cc3cc(-c4cn[nH]c4)ccc3cn2)CCN1C#N [Example 266, (2S,3S)—N-(6-(1H-pyrazol-4-yl)isoquinolin-3-yl)-1-cyano-2-methylpyrrolidine-3-carboxamide], which IC50 is on record?
**A.** Its IC50 is < 1 µM.

**Q.** How did the IC50 turn out when N#CN1CC[C@H](C(=O)Nc2cc3ccccn3n2)C1 [Example 267, (S)-1-cyano-N-(pyrazolo[1,5-a]pyridin-2-yl)pyrrolidine-3-carboxamide] was run?
**A.** The IC50 was 1 to 10 µM.

**Q.** How did the IC50 turn out when N#CN1CC[C@H](C(=O)Nc2cc(-c3ccccc3)ccn2)C1 [Example 268, (S)-1-cyano-N-(4-phenylpyridin-2-yl)pyrrolidine-3-carboxamide] was run?
**A.** The IC50 was 1 to 10 µM.
